# Several values for one entry are separate records, joined by “and”; a condition that tells them apart may be missing. Equal values may be shown once.
# How the values were obtained:
# [1] = Critical micelle concentration by conductivity; format: physicochemical; conditions: aqueous solution, 25 °C
# Excerpt: The change in specific conductivity of ester-functionalized choline-based ILs as a function of their concentration was investigated. […] Conductometric plots of the other homologues are presented in the Supplemetary Materials (Figures S10 and S11).
# In the pre- and postmicellization zones, the specific conductivity values are represented by two straight lines with different slopes. As a consequence of the micelle’s reduced mobility in comparison to the monomers and the binding of certain counterions to it, a pronounced change in slope is observed. The critical micelle concentration (CMC) value was calculated from the point of inflection in the curve. […] In accordance with the empirical Stauff–Klevens Equation (1), a linear relationship is observed between log CMC and alkyl chain length:log cmc = A − B × n(1)
# Conductivity measurements were carried out at 25 °C using an Orion conductivity cell 913005MD with an epoxy/graphite electrode and a Thermo Orion 5 Star multiparameter instrument with a cell constant of 0.475 cm^−1.
# [2] = test system: erythrocytes from rabbit blood; assay: Hemolytic activity; format: cell-based; conditions: concentration inducing 50% hemolysis, PBS pH 7.4, 10 min
# Description: To perform an initial assessment of cell toxicity, hemolysis has been employed. The hemolytic activity of ester-functionalized choline-based ILs was determined by mesuring the release of haemoglobin in erythrocytes from rabbit blood samples in the presence of these compounds. The HC50 values, representing the concentracion inducing 50% hemolysis, were calculated from the plots of the percentages of hemolysis versus CnECholBr concentration (Figure 7). The HC50 values are compiled in Table 4.
# Rabbit blood samples, used to prepare the erythrocyte suspension, were obtained from the animal facility of the Research and Development Center (CID) of the Spanish National Research Council (CID-CSIC) in Barcelona, Spain. The collection of fresh blood from rabbits adhered strictly to the bioethical guidelines stipulated by Spanish legislation, ensuring ethical treatment of the animals and compliance with research protocols. Heparinized blood samples were centrifuged for 10 min at 3000 rpm. The supernatant containing the white cells was discarded, while the erythrocytes were washed three times in PBS (pH 7.4). Erythrocytes were then suspended in PBS at a cell density of 8 × 10^9 cells/mL. A series of different volumes of a concentrated IL solution (10 to 80 μL) were placed in Eppendorf tubes containing 25 μL of erythrocyte suspension and PBS was added to each tube to a total volume of 1 mL [33]. Samples were shaken for 10 min at rt and the tubes were centrifuged (5 min at 10,000 rpm). The percentage of hemolysis was calculated by comparing the absorbance (540 nm) of the supernatant of the samples containing surfactants with that of the hemolyzed control with distilled water. The HC50 (concentration of surfactant that causes 50% hemolysis) was determined from the concentration-response curves.
# [3] = test system: Salmonella enterica; assay: MIC broth microdilution; format: cell-based; conditions: Salmonella enterica ATCC14208, 24 h, 37 °C
# Description: (§1) The antimicrobial activity of cholinium-based ILs with an ester group in the alkyl chain was evaluated against a range of representative bacteria and fungi.
# (§2) Antibacterial assays were performed against the following microorganisms: Bacillus subtilis ATCC 6633, Staphylococcus epidermidis ATCC 12228, Staphylococcus aureus ATCC 29213, Micrococcus luteus ATCC10240, Listeria monocytogenes ATCC 15313, methicillin-resistant Staphylococcus aureus ATCC 43300, Escherichia coli ATCC 8739, Acinetobacter baumannii ATCC 19606, Klebsiella aerogenes ATCC 13048, Pseudomonas aeruginosa 9027, and Salmonella enterica ATCC14208. The antibacterial activity was assessed in vitro using the minimum inhibitory concentration (MIC) method. MIC is defined as the lowest concentration of an antimicrobial agent that prevents visible bacterial growth after 24 h of incubation at 37 °C. The ionic liquids were dissolved in Mueller–Hinton broth (MBH) at concentrations ranging from 1 to 256 μg/mL. The broth was added (200 μL) to appropriate wells of a 96-well polystyrene microtitre plate. Then, 10 μL of a nutrient broth starter culture of each bacterial strain was added to achieve final inocula of approximately […] colony forming units (CFU)/mL. A growth control using nutrient broth medium without the ionic liquid was included. The plates were incubated 37 °C for 24 h. Bacterial growth was initially observed visually, with increased turbidity indicating cell growth. […] A color change of resazurine from blue to pink indicated bacterial metabolic activity. All the experiments were performed in triplicate to ensure reproducibility.
# [4] = test system: Acinetobacter baumannii; assay: MIC broth microdilution; format: cell-based; conditions: ATCC19606; Acinetobacter baumannii ATCC 19606, 24 h, 37 °C
# Description: as §1, §2
# [5] = test system: Micrococcus luteus; assay: MIC broth microdilution; format: cell-based; conditions: Micrococcus luteus ATCC10240, 24 h, 37 °C
# Description: as §1, §2
# [6] = test system: Escherichia coli; assay: MIC broth microdilution; format: cell-based; conditions: ATCC8739; Escherichia coli ATCC 8739, 24 h, 37 °C
# Description: as §1, §2
# [7] = test system: Listeria monocytogenes; assay: MIC broth microdilution; format: cell-based; conditions: ATCC15313; Listeria monocytogenes ATCC 15313, 24 h, 37 °C
# Description: as §1, §2
# [8] = test system: Staphylococcus epidermidis; assay: MIC broth microdilution; format: cell-based; conditions: ATCC12228; Staphylococcus epidermidis ATCC 12228, 24 h, 37 °C
# Description: as §1, §2
# [9] = test system: Pseudomonas aeruginosa; assay: MIC broth microdilution; format: cell-based; conditions: Pseudomonas aeruginosa 9027, 24 h, 37 °C
# Description: as §1, §2
# [10] = test system: Klebsiella aerogenes; assay: MIC broth microdilution; format: cell-based; conditions: ATCC13048; Klebsiella aerogenes ATCC 13048, 24 h, 37 °C
# Description: as §1, §2
# [11] = test system: Staphylococcus aureus; assay: MIC broth microdilution; format: cell-based; conditions: ATCC29213; Staphylococcus aureus ATCC 29213, 24 h, 37 °C
# Description: as §1, §2
# [12] = test system: Vibrio fischeri; assay: Vibrio fischeri bioluminescence inhibition assay; format: cell-based; conditions: Aliivibrio fischeri, 0.5 h; luminescence inhibition, 30-min exposure, 15 °C; read-out: V. fisheri, EC50 (95% CI)
# Description: To assess the aquatic toxicity of ester-functionalized cholinium-based ILs, a series of toxicity tests were conducted using the saltwater bacterium Vibrio fischeri. The bioluminescence inhibition assay with V. fischeri is a well-standardized and frequently employed method in ecotoxicological studies due to its sensitivity and reliability. The experimental procedure involved exposing V. fischeri to increasing concentrations of ILs and measuring the reduction in bioluminescence after a 30-min period. This bioluminescence reduction serves as a quantitative indicator of the ILs’ aquatic toxicity in marine bacteria.
# The V. fisheri bioluminescence assay was used to assess the aquatic toxicity of ester-functionalized choline-based ILs. […] We determined the concentration causing a 50% reduction in bacterial light emission (EC50) through regression analysis. The reported toxicity data are based on a 30-min exposure of the bacteria to the ionic liquid solution at 15 °C.
smiles,measurement,setting,value
CCCCCCCCCCOC(=O)C[N+](C)(C)CCO [C10ECholBr],CMC,[1],11.2 ± 0.8 mM
same,HC50,[2],>2500 µM
same,MIC,[3],> 256 µg/mL
same,MIC,[4],> 256 µg/mL
same,MIC,[5],> 256 µg/mL
same,MIC,[6],> 256 µg/mL
same,MIC,[7],> 256 µg/mL
same,MIC,[8],> 256 µg/mL
same,MIC,[9],> 256 µg/mL
same,MIC,[10],> 256 µg/mL
same,MIC,[11],> 256 µg/mL
same,EC50,[12],1.7 µg/mL
CCCCCCCCCCCCOC(=O)C[N+](C)(C)CCO [C12ECholBr],CMC,[1],4.2 ± 0.5 mM
same,HC50,[2],232 ± 2 µM
same,MIC,[3],> 256 µg/mL
same,MIC,[4],> 256 µg/mL
same,MIC,[5],16 µg/mL
same,MIC,[6],> 256 µg/mL
same,MIC,[7],> 256 µg/mL
same,MIC,[8],64 µg/mL
same,MIC,[9],> 256 µg/mL
same,MIC,[10],> 256 µg/mL
same,MIC,[11],64 µg/mL
same,EC50,[12],0.27 µg/mL
"CCCCCCCCCCCCCCOC(=O)C[N+](C)(C)CCO.[Br-] [C14ECholBr, N-(2-hydroxyethyl)-N,N-dimethyl-2-oxo-2-(tetradecyloxy)ethan-1-aminium bromide]",CMC,[1],0.7 ± 0.1 mM
same,HC50,[2],56 µM and 56 ± 1 µM
same,MIC,[3],> 256 µg/mL
same,MIC,[4],> 256 µg/mL
same,MIC,[5],8 µg/mL
same,MIC,[6],> 256 µg/mL
same,MIC,[7],> 256 µg/mL
same,MIC,[8],64 µg/mL
same,MIC,[9],> 256 µg/mL
same,MIC,[10],> 256 µg/mL
same,MIC,[11],128 µg/mL
same,EC50,[12],0.44 µg/mL
